In brackets after ≈: the same amount, converted by molar mass. Read-outs that look alike come from different tables or passages of the source.
What was measured:
[1] = tested on: Plasmodium falciparum chloroquine-resistant clone (W2); assay: microbe, parasite or virus in culture; format: cell-based; details: for IC50: Plasmodium falciparum, W2, P. falciparum W2, anti-HRPII test, read-out: IC50 (dose inhibiting 50% of parasite growth), mean ± SD; for In vitro activity against P. falciparum, in words: P. falciparum W2
Plasmodium berghei NK65 = assay: Antimalarial suppressive test in mice infected with P. berghei; details: for Activity in P. berghei-infected mice, in words: 50 mg/kg by oral route, Table IV experiment
[2] = BGM cells, 24 h, MTT, mean of 3-5 experiments
[3] = Table V experiment, chloroquine 15 mg/kg
[4] = Table VI, chloroquine 1.25 mg/kg
[5] = Table VI, chloroquine 2.5 mg/kg
[6] = chloroquine at subcurative doses, dose not given
[7] = P. falciparum W2, anti-HRPII test, mean of 3-5 experiments
[8] = Table IV, 50 mg/kg oral, daily for three days
[9] = Table IV, 50 mg/kg oral, daily for three days, vs untreated controls

O=C1O[C@H]([C@@H](O)CO)C(O)=C1O [Ascorbic acid]
IC50 ([1]; mean of 3-5 experiments): ≥ 50 µg/mL

CC1=C(/C=C/C(C)=C/C=C/C(C)=C/C=C/C=C(C)/C=C/C=C(C)/C=C/C2=C(C)CCCC2(C)C)C(C)(C)CCC1 [Beta carotene]
Selectivity index (SI) MDL50 / IC50 [1]: ≥ 71.4
In vitro activity against P. falciparum, in words [1]: reduced the P. falciparum parasite growth
IC50 ([1]; mean of 3-5 experiments): 14 ± 3.1 µg/mL (≈ 26.1 µM)
MDL50 (minimum lethal dose for 50% of cells), mean ± SD (BGM cell line; [2]): ≥ 1000 µg/mL

CCN(CC)CCCC(C)Nc1ccnc2cc(Cl)ccc12 (stereo not drawn) [Chloroquine]
IC50 ([1]; mean of 3-5 experiments): 0.175 ± 0.02 µg/mL (≈ 0.547 µM)
% Reduction of parasitaemia, 5th day (Plasmodium berghei NK65; Table IV, chloroquine 20 mg/kg): 100%
% Reduction of parasitaemia, 7th day (Plasmodium berghei NK65; Table IV, chloroquine 20 mg/kg): 100%
Survival (average ± SD) (Plasmodium berghei NK65; Table IV, chloroquine 20 mg/kg): 24 ± 5
mean parasitaemia ± SD, 5th day (Plasmodium berghei NK65; Table IV, chloroquine 20 mg/kg): 0.0 ± 0.0
mean parasitaemia ± SD, 7th day (Plasmodium berghei NK65; Table IV, chloroquine 20 mg/kg): 0.0 ± 0.0
% Reduction of parasitaemia, 7th day (Plasmodium berghei NK65; [3]): 65%
Survival (average ± SD) (Plasmodium berghei NK65; [3]): 24 ± 5
mean parasitaemia ± SD, 5th day (Plasmodium berghei NK65; [3]): 0.0 ± 0.0
mean parasitaemia ± SD, 7th day (Plasmodium berghei NK65; [3]): 2.9 ± 1.1
% Reduction of parasitaemia, 5th day (Plasmodium berghei NK65; Table V experiment, chloroquine 15 mg/kg, sub-curative): 100%
% Reduction of parasitaemia, 5th day (Plasmodium berghei NK65; [4]): 93%
% Reduction of parasitaemia, 7th day (Plasmodium berghei NK65; [4]): 49%
% Reduction of parasitaemia, 9th day (Plasmodium berghei NK65; [4]): 56%
Survival (average ± SD) (Plasmodium berghei NK65; [4]): 19 ± 4
mean parasitaemia ± SD, 5th day (Plasmodium berghei NK65; [4]): 0.1 ± 0.03%
mean parasitaemia ± SD, 7th day (Plasmodium berghei NK65; [4]): 7.6 ± 3.3%
mean parasitaemia ± SD, 9th day (Plasmodium berghei NK65; [4]): 5.1 ± 0.1%
% Reduction of parasitaemia, 5th day (Plasmodium berghei NK65; [5]): 95%
% Reduction of parasitaemia, 7th day (Plasmodium berghei NK65; [5]): 79%
% Reduction of parasitaemia, 9th day (Plasmodium berghei NK65; [5]): 29%
Survival (average ± SD) (Plasmodium berghei NK65; [5]): 20 ± 9
mean parasitaemia ± SD, 5th day (Plasmodium berghei NK65; [5]): 0.01 ± 0.1%
mean parasitaemia ± SD, 7th day (Plasmodium berghei NK65; [5]): 3.1 ± 5.3%
mean parasitaemia ± SD, 9th day (Plasmodium berghei NK65; [5]): 8.4 ± 4.5%
% Reduction of parasitaemia, 5th day (Plasmodium berghei NK65; Table VI, chloroquine 5 mg/kg): 94%
% Reduction of parasitaemia, 7th day (Plasmodium berghei NK65; Table VI, chloroquine 5 mg/kg): 69%
% Reduction of parasitaemia, 9th day (Plasmodium berghei NK65; Table VI, chloroquine 5 mg/kg): 57%
Survival (average ± SD) (Plasmodium berghei NK65; Table VI, chloroquine 5 mg/kg): 24 ± 4
mean parasitaemia ± SD, 5th day (Plasmodium berghei NK65; Table VI, chloroquine 5 mg/kg): 0.0 ± 0.1%
mean parasitaemia ± SD, 7th day (Plasmodium berghei NK65; Table VI, chloroquine 5 mg/kg): 4.7 ± 4.0%
mean parasitaemia ± SD, 9th day (Plasmodium berghei NK65; Table VI, chloroquine 5 mg/kg): 5.1 ± 3.1%
Reduction of parasitaemia, day 5 (Plasmodium berghei NK65; [6]): 95%
Reduction of parasitaemia, day 7 (Plasmodium berghei NK65; [6]): 79%

O=c1c(-c2ccc(O)cc2)coc2cc(O)cc(O)c12 [Genistein]
Selectivity index (SI) MDL50 / IC50 ([1]; BGM MDL50 / P. falciparum W2 IC50, toxicity considered at SI < 10): Inactive
In vitro activity against P. falciparum, in words [1]: no activity
IC50 (dose inhibiting 50% of parasite growth), mean ± SD [1, 7]: 28.8 ± 18.0 µg/mL
IC50 ([1]; mean of 3-5 experiments): > 25 µg/mL
MDL50 (minimum lethal dose for 50% of cells), mean ± SD (BGM cell line; [2]): ≥ 1000 µg/mL

COc1ccc([C@@H]2CC(=O)c3c(O)cc(O[C@@H]4O[C@H](CO[C@@H]5O[C@@H](C)[C@H](O)[C@@H](O)[C@H]5O)[C@@H](O)[C@H](O)[C@H]4O)cc3O2)cc1O [Hesperidin]
In vitro activity against P. falciparum, in words [1]: no activity
IC50 (dose inhibiting 50% of parasite growth), mean ± SD [1, 7]: ≥ 50 µg/mL
IC50 (dose inhibiting 50% of parasite growth), mean ± SD ([1]; P. falciparum W2, anti-HRPII test, mean of 3-5 experiments, listed as hesperidin): > 25 µg/mL
MDL50 (minimum lethal dose for 50% of cells), mean ± SD (BGM cell line; [2]): ≥ 1000 µg/mL
Activity in P. berghei-infected mice, in words (Plasmodium berghei NK65): slightly active
Survival (average ± SD) (Plasmodium berghei NK65; [8]): 20 ± 3
mean parasitaemia ± SD, 5th day (Plasmodium berghei NK65; [8]): 5.2 ± 0.8
mean parasitaemia ± SD, 7th day (Plasmodium berghei NK65; [8]): 9.1 ± 1.3
% Reduction of parasitaemia, 5th day (Plasmodium berghei NK65; [9]): 47%
% Reduction of parasitaemia, 7th day (Plasmodium berghei NK65; [9]): 38%

N[C@@H](CCC(=O)N[C@@H](CS)C(=O)NCC(=O)O)C(=O)O [L-Glutathione]
IC50 (dose inhibiting 50% of parasite growth), mean ± SD [1]: ≥ 50 µg/mL
MDL50 (minimum lethal dose for 50% of cells), mean ± SD (BGM cell line): ≥ 1000 µg/mL

CC(=O)N[C@@H](CS)C(=O)O [N-Acetylcysteine]
IC50 (dose inhibiting 50% of parasite growth), mean ± SD [1, 7]: ≥ 50 µg/mL
MDL50 (minimum lethal dose for 50% of cells), mean ± SD (BGM cell line): ≥ 1000 µg/mL

O=c1c(O)c(-c2ccc(O)c(O)c2)oc2cc(O)cc(O)c12 [Quercetin]
Selectivity index (SI) MDL50 / IC50 [1]: ≥ 76.9
In vitro activity against P. falciparum, in words [1]: most active flavonoid
IC50 ([1]; mean of 3-5 experiments): 13 ± 8.4 µg/mL (≈ 43 µM)
MDL50 (minimum lethal dose for 50% of cells), mean ± SD (BGM cell line; [2]): ≥ 1000 µg/mL
Activity in P. berghei-infected mice, in words (Plasmodium berghei NK65): best standard flavonoid
Survival (average ± SD) (Plasmodium berghei NK65; [8]): 22 ± 6
mean parasitaemia ± SD, 5th day (Plasmodium berghei NK65; [8]): 4.7 ± 4.0
mean parasitaemia ± SD, 7th day (Plasmodium berghei NK65; [8]): 8.3 ± 5.1
% Reduction of parasitaemia, 7th day (Plasmodium berghei NK65; [9]): 44%
% Reduction of parasitaemia, 5th day (Plasmodium berghei NK65; Table IV, 50 mg/kg oral, daily for three days, vs untreated controls, 50 mg/kg): 52%

Cc1cc2nc3c(=O)[nH]c(=O)nc-3n(C[C@H](O)[C@H](O)[C@H](O)CO)c2cc1C [Riboflavin]
In vitro activity against P. falciparum, in words [1]: reduced the P. falciparum parasite growth
IC50 ([1]; mean of 3-5 experiments): 8.1 ± 4 µg/mL (≈ 21.5 µM)
MDL50 (minimum lethal dose for 50% of cells), mean ± SD (BGM cell line; [2]): ≥ 1000 µg/mL

[Se] [Selenium]
IC50 (dose inhibiting 50% of parasite growth), mean ± SD [1, 7]: ≥ 50 µg/mL

CC(=O)Oc1c(C)c(C)c2c(c1C)CCC(C)(CCC[C@H](C)CCC[C@H](C)CCCC(C)C)O2 (stereo partly drawn) [Tocopherol acetate]
Selectivity index (SI) MDL50 / IC50 [1]: Inactive
IC50 ([1]; mean of 3-5 experiments): ≥ 50 µg/mL
MDL50 (minimum lethal dose for 50% of cells), mean ± SD (BGM cell line; [2]): ≥ 1000 µg/mL

[O]=[Zn] [Zinc oxide]
In vitro activity against P. falciparum, in words [1]: reduced the P. falciparum parasite growth
IC50 (dose inhibiting 50% of parasite growth), mean ± SD [1, 7]: 2.7 ± 1.4 µg/mL
MDL50 (minimum lethal dose for 50% of cells), mean ± SD (BGM cell line; [2]): ≥ 1000 µg/mL

Source: paper PMC6282106, “Commercial drugs containing flavonoids are active in mice with malaria and in vitro against chloroquine-resistant Plasmodium falciparum” (Memórias do Instituto Oswaldo Cruz, 2018)
